Test [1] deals with HL-60. Nature of the test: Antiproliferative activity against human HL60 cells assessed as reduction in cell viability after 24 hrs by MTT assay. Conditions: HL-60, 24 h. In kind it is functional, cell-based.
Test [2] deals with PBMC. The test is described as follows: Cytotoxicity against human PBMC cells assessed as reduction in cell viability after 24 hrs by MTT assay. The class given is cell-based. (In general: Tetrazolium dyes change colour on reduction, which living cells bring about.)
Test [3] deals with K562. Nature of the test: Antiproliferative activity against human K562 cells assessed as reduction in cell viability after 24 hrs by MTT assay. In kind it is functional, cell-based. The settings on record: K562, 24 h.
Test [4] relates to K562-Lucena 1. The test is described as follows: Antiproliferative activity against human K562-Lucena 1 cells assessed as reduction in cell viability after 24 hrs by MTT assay. The class given is functional, cell-based. The settings on record: K562-Lucena 1, 24 h.
For test [5], the system named is HT-29. The test is described as follows: Potency index, ratio of Sorafenib IC50 to test compound IC50 for antiproliferative activity against human HT-29 cells. In kind it is functional.
The subject of test [6] is MCF7. Nature of the test: Antiproliferative activity against human MCF7 cells assessed as reduction in cell viability after 72 hrs by MTT assay. The class given is functional, cell-based. Conditions: MCF7, 72 h.
Test [7] has as its system MCF7. Nature of the test: Potency index, ratio of Sorafenib IC50 to test compound IC50 for antiproliferative activity against human MCF7 cells. In kind it is functional.
Test [8] deals with HT-29. The test is described as follows: Antiproliferative activity against human HT-29 cells assessed as reduction in cell viability after 72 hrs by MTT assay. The class given is functional, cell-based. Conditions: HT-29, 72 h.
The subject of test [9] is Erythrocyte. The test is described as follows: Cytotoxicity against human RBC cells assessed as reduction in cell viability after 24 hrs by MTT assay. The class given is cell-based.
The subject of test [10] is MCF7. Nature of the test: Antiproliferative activity against human MCF7 cells assessed as reduction in cell viability after 24 hrs by MTT assay. Conditions: MCF7, 24 h. In kind it is functional, cell-based.
Test [11] has as its system PC-3. The test is described as follows: Antiproliferative activity against human PC3 cells assessed as reduction in cell viability after 24 hrs by MTT assay. The class given is functional, cell-based. The settings on record: PC-3, 24 h.
For test [12], the system named is HepG2. Nature of the test: Antiproliferative activity against human HepG2 cells assessed as reduction in cell viability after 24 hrs by MTT assay. The class given is functional, cell-based. The settings on record: HepG2, 24 h.
The nature of test [13]: Cytotoxicity against human HEK cells assessed as reduction in cell viability after 24 hrs by MTT assay. In kind it is cell-based. Conditions: HEK293, 24 h.
Test [14] relates to HCT-116. The test is described as follows: Antiproliferative activity against human HCT116 cells assessed as reduction in cell viability after 24 hrs by MTT assay. The class given is functional, cell-based. Conditions: HCT-116, 24 h.
A short description of test [15]: Antiproliferative activity against BAEC cells assessed as reduction in cell viability after 3 days by coulter counting method. In kind it is functional, cell-based. The settings on record: Bos taurus, 72 h.
For test [16], the system named is L1210. Nature of the test: Antiproliferative activity against mouse L1210 cells assessed as reduction in cell viability after 3 days by coulter counting method. The class given is functional, cell-based. The settings on record: L1210, 72 h.
Test [17] has as its system MKN-28. The test is described as follows: Antiproliferative activity against human MKN28 cells by MTT assay. In kind it is functional, cell-based.
Test [18] concerns MGC-803. The test is described as follows: Antiproliferative activity against human MGC803 cells by MTT assay. In kind it is functional, cell-based.
The subject of test [19] is MKN-45. Nature of the test: Antiproliferative activity against human MKN45 cells by MTT assay. In kind it is functional, cell-based.
Test [20] deals with HeLa. Nature of the test: Antiproliferative activity against human HeLa cells assessed as reduction in cell viability after 48 hrs by MTT assay. In kind it is functional, cell-based.
Test [21] deals with DU-145. The test is described as follows: Antiproliferative activity against human DU145 cells assessed as reduction in cell viability after 48 hrs by MTT assay. In kind it is functional, cell-based. Conditions: DU-145, 48 h.
The test system of test [22] is SK-OV-3. Nature of the test: Antiproliferative activity against human SKOV3 cells assessed as reduction in cell viability after 48 hrs by MTT assay. The class given is functional, cell-based. The settings on record: SK-OV-3, 48 h.
Test [23] relates to MDA-MB-231. The test is described as follows: Antiproliferative activity against human MDA-MB-231 cells assessed as reduction in cell viability after 24 hrs by MTT assay. In kind it is functional, cell-based. Conditions: MDA-MB-231, 24 h.

The results in this text go back to ChEMBL document CHEMBL4342418, “1,2,3-Triazole-containing hybrids as potential anticancer agents: Current developments, action mechanisms and structure-activity relationships” (Eur J Med Chem, 2019).

The IC50 is the concentration needed to halve the response being measured.

Each structure is given as a SMILES string. Bounds are passed on as bounds.

Regarding `O=C1C=C(n2cc(-c3ccccc3)nn2)C(=O)c2ccccc21`, the IC50 in [1], in test [2], in test [3] and in test [4] was 14.3 to 99.2 µM throughout.

As for `COc1ccc(-c2cn(C3=CC(=O)c4ccccc4C3=O)nn2)cc1`, the IC50 in test [1], in test [2], in [3] and in test [4] was 14.3 to 99.2 µM in each case.

For the compound `CNC(=O)c1cc(Oc2ccc(-n3cc(-c4cccs4)nn3)cc2)ccn1`, the “Ratio IC50” value in [5] and in test [7] was 6.2 - 131.2 throughout. The IC50 in [6] and in test [8] was 0.2 to 0.84 µM throughout.

In the case of `CNC(=O)c1cc(Oc2ccc(-n3cc(-c4cccc(F)c4)nn3)cc2)ccn1`, the “Ratio IC50” value in [5] and in test [7] was 6.2 - 131.2 throughout. In addition, the IC50 in test [6] and in test [8] was 0.2 to 0.84 µM throughout.

`COc1cc2nc(Cl)nc(Nc3ccc(Cn4cc(-c5ccccc5)nn4)cc3)c2cc1OC`: the IC50 is 45.6 µM in test [9]; 20.7 to 68 µM in test [10]; 20.7 to 68 µM in [11]; 20.7 to 68 µM in test [12]; 37.4 µM in [2]; 40.3 µM in test [13]. Also, the IC50 in [14] is 20.7 to 68 µM.

Consider `CS(=O)(=O)c1ccc(-c2cn(-c3cccc(-c4ccccn4)c3)nn2)cc1`, for which the half-maximal inhibitory concentration (IC50) in [15] and in test [16] was 100 µM throughout.

`COc1ccc(-n2cc(CN3c4ccccc4Sc4ccccc43)nn2)c([N+](=O)[O-])c1`: the IC50 in [17], in [18] and in test [19] was 1.2 to 3.5 µM each time.

For the compound `CS(=O)(=O)c1ccc(-c2cn(-c3ccc(Cl)c(-c4ccccn4)c3)nn2)c(Cl)c1`, the IC50 in test [15] and in test [16] was 40 to 82 µM each time.

For `CCc1ccc(-n2cc(CNC(=O)C(=O)c3c[nH]c4ccccc34)nn2)cc1`, the IC50 in [20] was above 100 µM; in test [21] it was 8.17 µM; in test [22], above 100 µM.

Turning to `Cc1ncc([N+](=O)[O-])n1Cc1cn(CCCCCN2C(=O)C(=O)c3cc(Cl)ccc32)nn1`, the IC50 is 20.8 µM in [10] and 16.1 µM in [23].
